Patent US10849898B2, “Treatment of relapsed and/or refractory solid tumors and non-Hodgkin's lymphomas” (CELGENE QUANTICEL RESEARCH, INC., priority 2016, dated 2020)
Like-named read-outs stand apart in the source and are kept apart here.

Tests used:
NCI-H1417 SCLC xenograft [1] = assay: Efficacy in NCI-H1417 SCLC xenograft model (athymic nude mice); assay type: in vivo
LU2514 SCLC PDX = assay: Efficacy in LU2514 HuPrime SCLC patient derived xenograft; assay type: in vivo, mice; settings: both LU2514 studies
Description: Tumor growth inhibition analysis was performed on Day 28 post treatment, the last day of dosing.

LXFS 573 SCLC PDX [2] = assay: Efficacy in LXFS 573 SCLC PDX model; assay type: in vivo, mice
LU2527 lung NEC PDX = assay type: in vivo
GA0087 gastric NEC PDX = assay type: in vivo
MKL-1 hMCC xenograft = assay type: in vivo; settings: 5 mg/kg PO 5 on/2 off
MS-1 hMCC xenograft = assay type: in vivo; settings: 5 mg/kg PO 5 on/2 off
MKL-1 cells = assay: Modulation of gene expression by RNA-seq; assay type: cell-based, human
Description: Libraries were sequenced on an Illumina NextSeq® 500 System (Illumina, San Diego, Calif.) using 75 base paired-end RNA sequencing. Sequenced reads were mapped to the hg19 human genome build and differential expression was determined by analysis of variance across all replicates relative to the vehicle control.
Sequenced reads were mapped to the hg19 human genome build using the Spliced Transcripts Alignment to a Reference (STAR) software tool (OAlexander Dobin, 2009-2016) and transcript counts were normalized using the Empirical Analysis of Digital Gene Expression Data in R (edgeR) and Differential gene expression analysis based on the negative binomial distribution (DESeq2) software tools (OBioconductor, 2003-2017). Differential expression was determined by analysis of variance across all replicates relative to the vehicle control.

[3] = Hemodynamic and ECG parameters in anesthetized guinea pigs; assay type: in vivo, Dunkin Hartley guinea pigs
Description: Animals were monitored throughout the experiment.

[4] = Pharmacokinetics after IV and oral administration; assay type: in vivo, CD-1 mice; settings: Mouse, female, single IV 5 mg base/kg
Description: (§1) Human PK parameters and exposures were predicted using allometric scaling. Mice and dogs were the species used for nonclinical toxicology assessment. […] Excretion of non-radiolabeled Compound A was studied in rats.

[5] = Pharmacokinetics after IV and oral administration; assay type: in vivo, Sprague Dawley rats; settings: rats
Description: as §1

[6] = Metabolism in cryopreserved primary hepatocytes; assay type: in vitro ADME; settings: mouse, rat, dog, monkey, human
[7] = Excretion in bile duct cannulated rats; assay type: in vivo; settings: IV
[8] = 4-week oral gavage pivotal toxicity study with 4-week recovery in dogs (with ECG and toxicokinetics); assay type: in vivo, Beagle dogs
Description: The QTc interval was calculated using the Fridericia method.

[9] = tested on: Salmonella typhimurium TA98 and TA 100 strains; assay: Bacterial reverse mutation assay; assay type: cell-based; settings: up to 500 μg/mL; with and without S9
[10] = Exploratory toxicity study in mice; assay type: in vivo, CD-1 mice
Description: Additional animals were included for TK evaluation.

LXFS 573 SCLC PDX [11] = settings: for SS, number of study survivors: Day 133, N=8
hERG potassium channel = hERG potassium channel (Homo sapiens (Human), UniProt Q12809); settings: hERG current
Sequence of hERG potassium channel (Q12809 whole entry): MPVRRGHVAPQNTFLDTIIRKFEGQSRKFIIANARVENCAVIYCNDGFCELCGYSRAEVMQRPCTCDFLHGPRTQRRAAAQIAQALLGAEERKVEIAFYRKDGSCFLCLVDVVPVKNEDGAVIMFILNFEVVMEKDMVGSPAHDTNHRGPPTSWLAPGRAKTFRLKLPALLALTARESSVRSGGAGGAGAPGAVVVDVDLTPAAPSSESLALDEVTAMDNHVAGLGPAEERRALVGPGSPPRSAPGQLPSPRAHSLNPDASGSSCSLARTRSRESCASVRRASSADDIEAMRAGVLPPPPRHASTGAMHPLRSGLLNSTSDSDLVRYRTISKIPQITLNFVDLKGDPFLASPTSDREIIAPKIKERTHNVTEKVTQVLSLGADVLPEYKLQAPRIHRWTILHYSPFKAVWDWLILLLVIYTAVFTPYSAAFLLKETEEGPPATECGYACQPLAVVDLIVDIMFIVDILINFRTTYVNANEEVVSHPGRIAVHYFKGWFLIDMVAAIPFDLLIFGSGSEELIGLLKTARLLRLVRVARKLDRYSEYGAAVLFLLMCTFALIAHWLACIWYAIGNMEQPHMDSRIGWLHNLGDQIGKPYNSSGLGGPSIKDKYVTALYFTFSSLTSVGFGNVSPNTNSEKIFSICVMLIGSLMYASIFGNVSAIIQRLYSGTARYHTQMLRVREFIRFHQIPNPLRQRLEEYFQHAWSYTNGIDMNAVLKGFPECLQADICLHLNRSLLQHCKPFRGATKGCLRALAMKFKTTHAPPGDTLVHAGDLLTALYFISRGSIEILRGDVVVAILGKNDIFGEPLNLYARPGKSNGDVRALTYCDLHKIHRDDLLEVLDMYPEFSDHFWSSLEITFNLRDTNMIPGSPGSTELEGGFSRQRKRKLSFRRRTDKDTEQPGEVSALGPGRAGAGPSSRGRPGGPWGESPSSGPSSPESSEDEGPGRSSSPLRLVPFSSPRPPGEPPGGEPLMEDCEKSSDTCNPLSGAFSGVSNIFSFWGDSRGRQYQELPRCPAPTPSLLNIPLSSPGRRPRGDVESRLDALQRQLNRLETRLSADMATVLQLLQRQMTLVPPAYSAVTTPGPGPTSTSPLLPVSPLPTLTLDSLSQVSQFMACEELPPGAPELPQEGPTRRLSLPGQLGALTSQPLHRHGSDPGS

[12] = Exploratory toxicity study in dogs
NCI-H1417 SCLC xenograft [13] = settings: 24 mg/kg Etoposide SC QD × 3
[14] = Etoposide at 24 mg/kg/day SC days 1-3 + Vehicle

COc1ccc(-c2c(-c3ccc(C#N)c(F)c3)nc(N3CCC(N)CC3)n(C)c2=O)cc1F [Compound A, 4-[2-(4-amino-piperidin-1-yl)-5-(3-fluoro-4-methoxy-phenyl)-1-methyl-6-oxo-1,6-dihydro-pyrimidin-4-yl]-2-fluoro-benzonitrile]
mean body weight gain by end of study (NCI-H1417 SCLC xenograft [1]; 2.5 mg base/kg PO QD×65): 1%
mean body weight gain by end of study (NCI-H1417 SCLC xenograft [1]; 5 mg base/kg PO QD×65): 7.5%
tolerability (NCI-H1417 SCLC xenograft [1]; 2.5 or 5 mg base/kg PO QD×65): well tolerated
mean body weight losses (LU2514 SCLC PDX): < 10%
Median Tumor Volumes Day 1 (LXFS 573 SCLC PDX [2]; 5 mg base/kg PO QD × 28): 108.4 mm^3
TGI end of study (Day 28) (LXFS 573 SCLC PDX [2]; 5 mg base/kg oral): 78%
Median Tumor Volumes Day 1 (LXFS 573 SCLC PDX [2]; 7.5 mg base/kg PO QD × 28): 113.2 mm^3
Median Tumor Volumes Day 1 (LXFS 573 SCLC PDX [2]; 10 mg base/kg PO QD × 28): 113.8 mm^3
Median Tumor Volumes Day 0 (LU2527 lung NEC PDX; 1.5 mg base/kg PO QD × 46): 148.2 mm^3
Median Tumor Volumes Day 0 (LU2527 lung NEC PDX; 5 mg base/kg PO QD × 46): 151.8 mm^3
Median Tumor Volumes Day 0 (GA0087 gastric NEC PDX; Group 2, 1.5 mg base/kg PO QD × 53): 128.9 mm^3
Median Tumor Volumes Day 0 (GA0087 gastric NEC PDX; Group 3, dose printed 1.5 mg base/kg (text: 5 mg/kg) PO QD × 53): 127.6 mm^3
Median Tumor Volumes Day −3 (MKL-1 hMCC xenograft): 65 mm^3
Median Tumor Volumes Day −3 (MS-1 hMCC xenograft): 49 mm^3
downregulated genes changed in both hMCC lines at both concentrations (of 4303) (MKL-1 cells; MKL-1 and MS-1, 10 and 100 nM, 3 days): 17 genes
ST18 and FREM2 gene expression change (upregulated, dose-dependent) (MKL-1 cells; both hMCC lines, 10 and 100 nM): at least 2 fold
maximum suppression of HR vs vehicle ([3]; 20 mg base/kg IV, 9 minutes into 10-minute infusion): 19%
effect on MAP or its components ([3]; IV 5-20 mg base/kg vs time-matched vehicle): No notable effect
QTcB interval increase at end of monitoring period ([3]; after escalating IV doses): 10%
clearance ([4]; CD-1, plasma): 39 mL/min/kg
Vss [4]: 7.31 L/kg
systemic clearance [5]: greater than liver blood flow
metabolic stability in hepatocytes [6]: greater in rat and dog followed by human and monkeys while being least stable in mouse hepatocytes
dose excreted intact in urine ([7]; 24 hours): 8.5 % of dose
dose excreted intact in 24 hours (urine + bile) ([7]; bile duct cannulated rats): 26.3 % of the dose
animals euthanized moribund ([8]; 0.375 mg base/kg QW): 1 male
animals euthanized moribund ([8]; 0.75 mg base/kg QW): 2 males and 1 female
animals euthanized moribund ([8]; 1.5 mg base/kg QW): 3 males and 4 females
recovery of findings after 4-week treatment-free period ([8]; dog, in vivo): complete recovery
animals euthanized moribund ([8]; weekly oral administration, study Days 13 to 23): 11 animals
mutagenicity [9]: negative
increase in platelets on Day 8 vs end of first dosing period ([10]; 10 mg/kg/day 5 days on/2 days off): > 2 fold
greatest reduction in neutrophil counts vs controls and pre-study values ([10]; 5 days on/2 days off schedule): approximately 90%
circulating platelets at end of study ([10]; all dose levels): reduced
tumor volume of survivor at study end (LXFS 573 SCLC PDX [11]; Compound A 1 mg/kg in combination with etoposide 24 mg/kg): 1430 mm3
survivors on Day 133 (LXFS 573 SCLC PDX [11]; Compound A 1 mg/kg in combination with etoposide 24 mg/kg, n=8): 1 animals
MTV of survivors on Day 133 (LXFS 573 SCLC PDX [11]; Compound A 2.5 mg/kg in combination with etoposide 24 mg/kg): 1121 mm3
survivors on Day 133 (LXFS 573 SCLC PDX [11]; Compound A 2.5 mg/kg in combination with etoposide 24 mg/kg, n=8): 3 animals
MTV of survivors on Day 133 (LXFS 573 SCLC PDX [11]; Compound A 5 mg/kg in combination with etoposide 24 mg/kg): 121 mm3
survivors on Day 133 (LXFS 573 SCLC PDX [11]; Compound A 5 mg/kg in combination with etoposide 24 mg/kg, n=8): 8 animals
Median TTE (LXFS 573 SCLC PDX [11]; Compound A at 5 mg/kg/day PO days 1-133): 133 days
SS, number of study survivors (LXFS 573 SCLC PDX [11]; Compound A at 5 mg/kg/day): 7
study survivors on Day 133 (LXFS 573 SCLC PDX [11]; Compound A monotherapy 5 mg/kg, n=8): seven
Hill coefficient (hERG potassium channel): 1.2
Compound A-related effects ([12]; 0.25 mg/kg/dose QOD): generally no Compound A-related effects
body weight loss of moribund female ([12]; 0.5 mg/kg/day 5 days on/2 days off, Day 12): 10.8%
mortality ([12]; 0.5 mg/kg/day 5 days on/2 days off, one female, Day 12): sacrificed moribund

COc1cc([C@@H]2c3cc4c(cc3[C@@H](O[C@@H]3O[C@@H]5CO[C@@H](C)O[C@H]5[C@H](O)[C@H]3O)[C@H]3COC(=O)[C@H]23)OCO4)cc(OC)c1O [Etoposide, etoposide, reference compound]
SS, number of study survivors (LXFS 573 SCLC PDX [11]; Etoposide at 24 mg/kg/day + Vehicle): 0 (na)
Median TTE (LXFS 573 SCLC PDX [11]; [14]): 63 days
T-C (LXFS 573 SCLC PDX [11]; [14]): 21 days
% TGD (LXFS 573 SCLC PDX [11]; etoposide monotherapy 24 mg/kg): 50%
TGD (LXFS 573 SCLC PDX [11]; etoposide monotherapy 24 mg/kg): 21 days
Median TTE (LXFS 573 SCLC PDX [11]; etoposide monotherapy 24 mg/kg SC daily Days 1-3): 63 days
% TGD (NCI-H1417 SCLC xenograft [13]): 97%
Median TTE (NCI-H1417 SCLC xenograft [13]): 50 days
T − C (NCI-H1417 SCLC xenograft [13]): 24 days
